# Laboratory results reported in patent publication US12479843B2, “Spiro ring-containing quinazoline compounds” (WIGEN BIOMEDICINE TECHNOLOGY (SHANGHAI) CO., LTD., priority 2019, dated 2025).
# System: pERK level in H358 cells
# Test: pERK and ERK protein content assay in H358 cells (ELISA)
# Format: cell-based
# Conditions: Homo sapiens, NCI-H358, compound 1 μM, 24 h, pERK/ERK ratio compared with DMSO group, read-out: Inhibition rate (%) of pERK level
# How it was run: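 H358 cells grown one day, then treated 24 h with compound at 1 μM. pERK and ERK in lysates measured by ELISA; pERK/ERK ratio expressed as percent inhibition versus DMSO.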
row,SMILES,inhibition at 1 µM [%]
1,C=C(F)C(=O)N1CC2(CCN(c3nc(OC4CCN(CCOC)CC4)nc4c(OCC)c(-c5c(C)ccc6[nH]ncc56)c(C5CC5)cc34)CC2)C1 [Compound 2],> 90
2,C=Cc1cc2c(N3CCC4(CC3)CN(C(=O)C(=C)F)C4)nc(OC3CCN(CCOC)CC3)nc2c(OCC(F)(F)F)c1-c1c(C)ccc2[nH]ncc12 [Compound 5],> 90
3,C=C(F)C(=O)N1CC2(CCN(c3nc(OC[C@@H]4COCCN4C)nc4c(OCC(F)(F)F)c(-c5c(C)ccc6[nH]ncc56)c(C5CC5)cc34)CC2)C1 [Compound 116],50 to 90
4,C=CC(=O)N1CC2(CCN(c3nc(N4CC(N5C[C@@H](O)C[C@H]5C)C4)nc4c(OCC(F)(F)F)c(-c5c(C)ccc6[nH]ncc56)c(C5CC5)cc34)CC2)C1 [Compound 259],> 90
5,C=C(F)C(=O)N1CC2(CCN(c3nc(N4CC5(CCN(CC(C)CC)CC5)C4)nc4c(OCC(F)(F)F)c(-c5c(C)ccc6[nH]ncc56)c(C5CC5)cc34)CC2)C1 (stereo not drawn) [Compound 82],> 90

# System: H358 cells
# Test: Antiproliferative activity against H358 cells (Cell Titer Glow, ultra-low attachment plate)
# Format: cell-based
# Conditions: Homo sapiens, NCI-H358, 72 h, 96-well ultra-low attachment plate, three days after addition of compound, Cell Titer Glow
# Protocol: 2500 H358 cells were seeded in a 96-well ultra-low attachment plate (corning, 7007). After one day of growth, a serially diluted compound (a maximum concentration of 5 μM, 5-fold dilution, a total of five doses) was added. Three days after the addition of the compound, Cell Titer Glow (Promega, G9681) was added to evaluate pellet growth, and the IC50 value was calculated.
row,SMILES,IC50 [nM]
1,C=C(F)C(=O)N1CC2(CCN(c3nc(OC[C@@H]4COCCN4C)nc4c(OCC(F)(F)F)c(-c5c(C)ccc6[nH]ncc56)c(C5CC5)cc34)CC2)C1 [Compound 116],300 to 1000
2,C=C(F)C(=O)N1CC2(CCN(c3nc(N4CC5(CCN(CC(C)CC)CC5)C4)nc4c(OCC(F)(F)F)c(-c5c(C)ccc6[nH]ncc56)c(C5CC5)cc34)CC2)C1 (stereo not drawn) [Compound 82],< 300

# Next, values leading:
row,IC50 [nM],SMILES
1,< 300,C=C(F)C(=O)N1CC2(CCN(c3nc(OC4CCN(CCOC)CC4)nc4c(OCC)c(-c5c(C)ccc6[nH]ncc56)c(C5CC5)cc34)CC2)C1 [Compound 2]
2,< 300,C=Cc1cc2c(N3CCC4(CC3)CN(C(=O)C(=C)F)C4)nc(OC3CCN(CCOC)CC3)nc2c(OCC(F)(F)F)c1-c1c(C)ccc2[nH]ncc12 [Compound 5]
3,< 300,C=CC(=O)N1CC2(CCN(c3nc(N4CC(N5C[C@@H](O)C[C@H]5C)C4)nc4c(OCC(F)(F)F)c(-c5c(C)ccc6[nH]ncc56)c(C5CC5)cc34)CC2)C1 [Compound 259]

# System: Human pancreatic cancer Mia PaCa-2 cells
# Test: Antitumor activity on graft tumors of human pancreatic cancer Mia PaCa-2 in nude mice
# Format: in vivo
# Conditions: Mia PaCa-2 graft tumors in nude mice, 10 mg/kg intragastric, qd*21
# Protocol: Human pancreatic cancer Mia PaCa-2 cells were cultured conventionally in 1640 medium containing 10% fetal bovine serum in a 37° C./5% CO2 incubator. After passage, the cells were collected when they reached the desired amount. 1×10^7 Mia PaCa-2 cells were injected into the left dorsal side of each nude mouse, and the animals were randomly grouped for administration after tumors grew to 150 mm3. The groups are as follows: 1) a solvent control group of 8 mice; and 2) compound 1 group, compound 2 group, compound 5 group, compound 31 group, compound 131 group, compound 142 group, compound 171 group, compound B group and compound C group, with 8 mice per group. Mice in the solvent control group were subjected to intragastric administration of 0.5% CMC-Na once daily; mice in compound 1 group, compound 2 group, compound 5 group, compound 31 group, compound 131 group, compound 142 group, compound 171 group, compound B group and compound C group were subjected to intragastric administration of a suspension of a compound in 0.5% CMC-Na once daily. On Tuesday and Thursday each week, tumor volumes and body weight of the mice were measured, and the nude mice were sacrificed on day 21 of administration.
row,SMILES,Anti-tumor effect (regression) [% regression]
1,C=C(F)C(=O)N1CC2(CCN(c3nc(OC4CCN(CCOC)CC4)nc4c(OCC)c(-c5c(C)ccc6[nH]ncc56)c(C5CC5)cc34)CC2)C1 [Compound 2],23
2,C=Cc1cc2c(N3CCC4(CC3)CN(C(=O)C(=C)F)C4)nc(OC3CCN(CCOC)CC3)nc2c(OCC(F)(F)F)c1-c1c(C)ccc2[nH]ncc12 [Compound 5],30
